Test results from US8518952B2, “6 substituted 2-heterocyclylamino pyrazine compounds as CHK-1 inhibitors” (Pfizer Inc., priority 2008, dated 2013).
Like-named read-outs stand apart in the source and are kept apart here.

Legend:
[1] = tested on: Mia Paca-2 cells; test: Histone H3 (Ser10) phosphorylation ELISA, abrogation of camptothecin-induced G2 arrest (CHK-1 cellular assay); type: cell-based; details: Homo sapiens, camptothecin 8 hrs, then compound with nocodozole 16 hours
Procedure: The Histone H3 phosphorylation ELISA assay detects cells entering mitosis and represents the primary in vitro cell-based assay used to measure the cellular potency of compounds in abrogating the G2 check point induced by DNA damage in HeLa cells or MiaPaCa cells. The candidate substances were assayed for potency in their ability to inhibit camptothecin-induced G2 arrest, as measured by an increase in Histone H3 phosphorylation on Ser10, a marker of entry into mitosis.
The PathScan Phospho-Histone H3 (Ser10) Sandwich ELISA kit was used (Cell Signaling, #7155) and the assay was performed according to manufacturer recommendations. Tissue culture plates were seeded with HeLa cells or MiaPaCa Cells and allowed to attach overnight. The cells were then treated with camptothecin to induce DNA damage for 8 hrs. Candidate substances or diluent were then added in the presence of nocodozole for 16 hours. Cells were then lysed with buffer from Assay Designs (#80-1114) supplemented with protease inhibitors and frozen overnight. The fresh whole cell lysates were then thawed and added to the ELISA plate with shaking for 3 hours. Between all subsequent steps plates were washed 4 times with PBST. Biotinylated phospho Histone H3 (ser10) detection antibody was added for 1 hour, followed by addition of horseradish peroxidase-linked streptavidin secondary antibody for 1 hour. Color development of the antibody was performed with addition of TMB substrate and incubation for 2 minutes on a plate shaker. Stop solution was added and plates were read with absorbance at 450 nm on a spectrophotometer. EC50 values were calculated by sigmoid curve fitting using a four-parameter analysis.
Under the “Ki” column, data entries in the format of “%” are percent inhibition data where no Ki data is available. Data entry under the “EC50” column with an * are data obtained using Mia Paca-2 cells rather than HeLa cells. Data is not available where noted as n/a.

[2] = biological target: T1, CHK1 (kinase domain) (Homo sapiens, UniProt O14757); test: CHK1 Ki determination, spectrophotometric coupled (pyruvate kinase/lactate dehydrogenase) assay; type: biochemical; details: CHK-1 kinase domain; for percent inhibition (where no Ki data is available): inhibitor concentration not given; for Ki: 150 uM ATP, 125 uM Syntide 2
T1 construct: a solution containing 1 nM of CHK1 (kinase domain)
T1 sequence (O14757 9-265 limits assumed): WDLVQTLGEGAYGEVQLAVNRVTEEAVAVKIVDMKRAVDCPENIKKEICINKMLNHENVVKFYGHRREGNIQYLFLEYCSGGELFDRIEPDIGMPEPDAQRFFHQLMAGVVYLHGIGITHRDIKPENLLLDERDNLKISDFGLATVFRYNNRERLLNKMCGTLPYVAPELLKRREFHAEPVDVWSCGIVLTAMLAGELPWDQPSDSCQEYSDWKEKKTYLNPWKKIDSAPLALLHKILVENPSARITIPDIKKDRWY
Method in brief: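 Ki values, or % inhibition where no Ki was obtained, come from a tight-binding fit that uses active enzyme concentration and the ATP Km. Rates were followed as NADH loss at 340 nm, with ADP production coupled via pyruvate kinase and lactate dehydrogenase. Reactions with ATP (150 uM) and Syntide 2 (125 uM) were started after the CHK1 kinase domain had stood with inhibitor for 15 min.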

[3] = tested on: HeLa cells; test: Histone H3 (Ser10) phosphorylation ELISA, abrogation of camptothecin-induced G2 arrest (CHK-1 cellular assay); type: cell-based; details: HeLa cells, camptothecin 8 hrs, then compound with nocodozole 16 hours, read-out: EC50
Method in brief: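 HeLa cells, or MiaPaCa-2 where marked, received camptothecin for 8 h, then compound with nocodazole for 16 h. Ser10-phosphorylated histone H3 in lysates was measured by ELISA with a biotinylated antibody, streptavidin-HRP and TMB. EC50 came from four-parameter sigmoid fits.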

[4] = Mia Paca-2 cells (entries marked *)
[5] = MIA PaCa-2, Mia Paca-2 cells (entries marked *)

SMILES | Ki [2] | EC50 ([3]; Homo sapiens, HeLa) | also measured
C[C@@H]1CNC[C@@H]1Nc1cncc(-c2cnn3cccc(F)c23)n1 [Example 200, 6-(4-fluoropyrazolo[1,5-a]pyridin-3-yl)-N-[(3R,4R)-4-methylpyrrolidin-3-yl]pyrazin-2-amine] | – | – | EC50 [1, 4]: 127 nM; percent inhibition (where no Ki data is available) [2]: 26.1%^
CCOC[C@@H]1C[C@@H](Nc2cncc(-c3cnc4cc(C)ccn34)n2)CN1 [Example 241, N-[(3R,5S)-5-(ethoxymethyl)pyrrolidin-3-yl]-6-(7-methylimidazo[1,2-a]pyridin-3-yl)pyrazin-2-amine] | 45 nM | – | EC50 [1, 4]: 201 nM
COc1ccn2c(-c3cncc(N[C@@H]4CCCNC4)n3)cnc2c1 [Example 37, 6-(7-Methoxyimidazo[1,2-a]pyridin-3-yl)-N-[(3R)-piperidin-3-yl]pyrazin-2-amine] | 2.03 nM | – | EC50 [1, 5]: 21 nM
NC(=O)c1ccn2c(-c3cncc(N[C@@H]4CCCNC4)n3)cnc2c1 [Example 86, 3-{6-[(3R)-piperidin-3-ylamino]pyrazin-2-yl}imidazo[1,2-a]pyridine-7-carboxamide] | 1.68 nM | – | EC50 [1, 5]: 295 nM
N#Cc1ccn2c(-c3cncc(N[C@@H]4C[C@@H]5CN[C@H]4C5)n3)cnc2c1 [Example 162, 3-{6-[(1S,4R,6R)-2-azabicyclo[2.2.1]hept-6-ylamino]pyrazin-2-yl}imidazo[1,2-a]pyridine-7-carbonitrile] | – | – | EC50 [1, 4]: 321 nM
Cc1cn2c(-c3cncc(N[C@H]4CCCN[C@@H]4C)n3)cnc2s1 [Example 134, 6-(2-methylimidazo[2,1-b][1,3]thiazol-5-yl)-N-[(2R,3S)-2-methylpiperidin-3-yl]pyrazin-2-amine] | – | ≥ 10000 nM | percent inhibition (where no Ki data is available) [2]: 0%
Cc1cn2c(-c3cncc(N[C@@H]4CCCN[C@H]4C)n3)cnc2s1 [Example 176, 6-(2-methylimidazo[2,1-b][1,3]thiazol-5-yl)-N-[(2S,3R)-2-methylpiperidin-3-yl]pyrazin-2-amine] | 9.54 nM | – | EC50 [3]: 11.2 nM
c1cc2c(cc1OCC1CC1)ncn2-c1cncc(N[C@@H]2CCNC2)n1 [Example 221, 6-[5-(cyclopropylmethoxy)-1H-benzimidazol-1-yl]-N-[(3R)-pyrrolidin-3-yl]pyrazin-2-amine] | 3.34 nM | 370 nM | –
N#Cc1ncc(N[C@@H]2CCNC2)nc1-c1cnc2ccccn12 [Example 267, 3-(imidazo[1,2-a]pyridin-3-yl)-5-[(3R)-pyrrolidin-3-ylamino]pyrazine-2-carbonitrile] | – | – | EC50 [1, 4]: 10000 nM
Cc1cn2c(-c3cncc(N[C@@H]4CCCNC4)n3)cnc2s1 [Example 59, 6-(2-Methylimidazo[2,1-b][1,3]thiazol-5-yl)-N-[(3R)-piperidin-3-yl]pyrazin-2-amine] | 3 nM | 9.09 nM | –
c1cn2c(-c3cncc(N[C@@H]4CCCNC4)n3)cnc2s1 [Example 41, 6-Imidazo[2,1-b][1,3]thiazol-5-yl-N-[(3R)-piperidin-3-yl]pyrazin-2-amine] | 7 nM | 25.8 nM | –
CCc1cn2c(-c3cncc(N[C@@H]4CCCN[C@H]4C)n3)cnc2s1 [Example 109, 6-(2-ethylimidazo[2,1-b][1,3]thiazol-5-yl)-N-[(2S,3R)-2-methylpiperidin-3-yl]pyrazin-2-amine] | 28.4 nM | – | EC50 [3]: 190 nM
CC(C)c1cn2c(-c3cncc(N[C@@H]4CCCN[C@H]4C)n3)cnc2s1 [Example 112, 6-(2-isopropylimidazo[2,1-b][1,3]thiazol-5-yl)-N-[(2S,3R)-2-methylpiperidin-3-yl]pyrazin-2-amine] | 12.7 nM | 1110 nM | –
Cc1ncc(-c2cnc3ccccn23)nc1N[C@@H]1CCNC1 [Example 223, 6-(imidazo[1,2-a]pyridin-3-yl)-3-methyl-N-[(3R)-pyrrolidin-3-yl]pyrazin-2-amine] | 68.1 nM | 329 nM | –
Cc1cn2c(-c3cncc(N[C@@H]4CC[C@H](C)NC4)n3)cnc2s1 (relative stereo) [Example 62, Cis 6-(2-Methylimidazo[2,1-b][1,3]thiazol-5-yl)-N-(6-methylpiperidin-3-yl)pyrazin-2-amine] | 73.5 nM | 694 nM | –
c1ccn2c(-c3cncc(NC4CC5CNC4C5)n3)cnc2c1 (stereo not drawn) [Example 159, N-[6-(imidazo[1,2-a]pyridin-3-yl)pyrazin-2-yl]-2-azabicyclo[2.2.1]heptan-6-amine] | 20.8 nM | 166 nM | –
CC(C)c1cn2c(-c3cncc(N[C@@H]4CCCN[C@H]4C)n3)cnc2s1 [Example 169, N-[(2S,3R)-2-methylpiperidin-3-yl]-6-[2-(propan-2-yl)imidazo[2,1-b][1,3]thiazol-5-yl]pyrazin-2-amine] | – | – | EC50 [3]: 1850 nM; percent inhibition (where no Ki data is available) [2]: 45.9%^
CC(C)c1cn2c(-c3cncc(N[C@H]4CCCN[C@@H]4C)n3)cnc2s1 [Example 173, N-[(2R,3S)-2-methylpiperidin-3-yl]-6-[2-(propan-2-yl)imidazo[2,1-b][1,3]thiazol-5-yl]pyrazin-2-amine] | 23.7 nM | ≥ 10000 nM | –
CC(C)Oc1ccc2ncn(-c3cncc(N[C@@H]4CCNC4)n3)c2c1 [Example 15, 6-[6-(propan-2-yloxy)-1H-benzimidazol-1-yl]-N-[(3R)-pyrrolidin-3-yl]pyrazin-2-amine] | – | ≥ 10000 nM | percent inhibition (where no Ki data is available) [2]: 43.5%^

Continued, in another order:

Ki [2] | EC50 ([3]; Homo sapiens, HeLa) | SMILES | also measured
27.5 nM | 68.4 nM | C[C@@H]1CNC[C@@H]1Nc1cncc(-c2cnc3ccccn23)n1 [Example 12, 6-Imidazo[1,2-a]pyridin-3-yl-N-[(3R,4R)-4-methylpyrrolidin-3-yl]pyrazin-2-amine] | –
18.4 nM | 19.4 nM | C[C@@H]1CNC[C@@H]1Nc1cncc(-c2cnn3cc(F)ccc23)n1 [Example 202, 6-(6-fluoropyrazolo[1,5-a]pyridin-3-yl)-N-[(3R,4R)-4-methylpyrrolidin-3-yl]pyrazin-2-amine] | –
3.1 nM | ≥ 10000 nM | C[C@H]1NCCC[C@H]1Nc1cncc(-c2cnc3cc(Cl)ccn23)n1 [Example 102, 6-(7-chloroimidazo[1,2-a]pyridin-3-yl)-N-[(2R,3R)-2-methylpiperidin-3-yl]pyrazin-2-amine] | –
70.2 nM | ≥ 10000 nM | FC(F)[C@@H]1C[C@@H](Nc2cncc(-c3cnc4ccccn34)n2)CN1 [Example 25, N-[(3R,5S)-5-(difluoromethyl)pyrrolidin-3-yl]-6-(imidazo[1,2-a]pyridin-3-yl)pyrazin-2-amine] | –
– | 7970 nM | F[C@H]1CNC[C@@H]1Nc1cncc(-c2cnc3ccccn23)n1 (relative stereo) [Example 46, Trans N-[4-fluoropyrrolidin-3-yl]-6-imidazo[1,2-a]pyridin-3-ylpyrazin-2-amine] | percent inhibition (where no Ki data is available) [2]: 29.7%^
2.54 nM | 31.8 nM | c1ccn2ncc(-c3cncc(N[C@@H]4CCCNC4)n3)c2c1 [Example 6, N-[(3R)-piperidin-3-yl]-6-pyrazolo[1,5-a]pyridin-3-ylpyrazin-2-amine] | –
5.4 nM | 66.4 nM | CCc1cn2c(-c3cncc(N[C@H]4CNC[C@H]4CF)n3)cnc2s1 [Example 185, 6-(2-ethylimidazo[2,1-b][1,3]thiazol-5-yl)-N-[(3R,4R)-4-(fluoromethyl)pyrrolidin-3-yl]pyrazin-2-amine] | –
156 nM | 1320 nM | CO[C@@H]1CNC[C@@H]1Nc1cncc(-c2cnc3ccccn23)n1 [Example 190, 6-(imidazo[1,2-a]pyridin-3-yl)-N-[(3S,4R)-4-methoxypyrrolidin-3-yl]pyrazin-2-amine] | –
23 nM | 229 nM | COc1ccc2ncc(-c3cncc(N[C@@H]4CCNC4)n3)n2c1 [Example 55, 6-(6-Methoxyimidazo[1,2-a]pyridin-3-yl)-N-[(3R)-pyrrolidin-3-yl]pyrazin-2-amine] | –
